The text below walks through data of US20250290915A1, “METHOD FOR PREDICTING RESPONSIVENESS TO THERAPY” (CANCERTAIN LIMITED, priority 2022, published 2025).

Common to all, as to assay type: cell-based, human
The test system of test [1] is Circulating Tumour Cells (CTCs) from a patient with colon cancer (sigmoid colon cancer). Put plainly: Drug response score assay on CTCs from blood, Example 8. The procedure: (§1) CD45^+ cells and circulating tumour cells (CTCs) were isolated from a blood sample provided by each subject.
(§2) CD45 separation was performed by adding human CD45 microbeads (50 μl/ml blood), incubating for 15 minutes at 4° C. and then processing using an AutoMACS machine. This separates the blood sample into CD45^+ and CD45^−cells in 2 separate falcons. The falcon tubes are then centrifuged at 1200 rpm for 5 minutes.
(§3) The supernatant was removed from the CD45^−falcon tube, and the CD45^−cells contacted with 100 μl of FcR block and 100 μl of CD326 (EpCAM) MicroBeads, followed by incubation at […] 4° C. for 30 minutes. The CD45^−cells were then processed using an AutoMACS machine to separate the EpCAM positive and negative cells into 2 separate falcon tubes. The EpCAM-cells were discarded. The supernatant was removed from the EpCAM^+ cells, and the cells resuspended in DMEM with 2 μl Cell Tox, 2 μl MT and 2 μl MT. 20 μl of the resuspended pellet was then added to all sample wells excluding a blank. After all wells are added to, a cell count was conducted on the […] to determine the number of circulating tumour cells (CTCs).
(§4) After attachment, an initial imaging step was carried out using the RealTime-Glo™ MT assay from Promega (Catalogue No. G9711)) and the CellTox™ Green Cytotoxicity Assay (Promega, Catalogue No. G8741), carried out according to manufacturer's instructions. Following this initial imagining, the immunotherapeutic and/or chemotherapeutic agents were added to the cell populations as indicated below. After 10 minutes, the imagining step was repeated. The cell populations were then incubated at 37° C., 5% CO2 for 48 hours. The imaging step was then repeated. The cell populations were then re-dosed with the same immunotherapeutic and/or chemotherapeutic agents as indicated below, and incubated at 37° C., 5% CO2 for a further 48 hours. After this second 48 hour incubation, the imagining step was repeated for a final time.
(§5) At the end of this culture period, dose response scores were calculated using a normalized drug response metric as described in Gupta et al. (Communications Biology volume 3, Article number: 42 (2020), https://doi.org/10.1038/s42003-020-0765-z). The start readout for a given immunotherapeutic or chemotherapeutic agent at a given concentration was the to readout for said immunotherapeutic or chemotherapeutic agent at a specified concentration. The end readout for a given immunotherapeutic or chemotherapeutic agent at a given concentration was the final timepoint reading (t96h) for said immunotherapeutic or chemotherapeutic agent at a specified concentration.
(§6) The positive control start readout for a given drug/concentration was the to readout for the corresponding drug at a specified concentration. The positive control end readout for the corresponding drug at a specified concentration was the final timepoint reading (t96h) for the corresponding blank well.
(§7) The negative control start and end readouts for a given immunotherapeutic or chemotherapeutic agent at a given concentration were the to and final timepoint reading (t96h) respectively for blank cell or blank immuno cell well respectively.
(§8) The sensitivity or resistance of a subject's cancer to a given immunotherapeutic or chemotherapeutic agent was determined based on the calculated drug response score as shown in Table 2.
Blood samples from a patient with colon cancer (sigmoid colon cancer) were received on 8 Mar. 2022 and tested using a 9 drug panel.
Chemotherapeutic agents were tested as in Table 24.

For test [2], the system named is Circulating Tumour Cells (CTCs) from a patient with sex cord stromal tumour, ovarian tumour. Put plainly: Drug response score assay on CTCs from blood, Example 4. The arrangement: key to Drug response score, conc. 1 / Drug response score, conc. 2 / Drug response score, conc. 3 / Drug response score, conc. 4: normalized drug response metric (Gupta et al. 2020). The note with it: for Drug response score, conc. 1: conc. 1: Cyclo 2.5 μg/ml, Vinc 10 ng/ml, Etop 1 μg/ml, Bini 100 ng/ml, Doxo 10 ng/ml; for Drug response score, conc. 1 / Drug response score, conc. 2 / Drug response score, conc. 3 / Drug response score, conc. 4: CTCs, t96h; for Drug response score, conc. 2: conc. 2: Cyclo 10 μg/ml, Vinc 20 ng/ml, Etop 4 μg/ml, Bini 200 ng/ml, Doxo 30 ng/ml; for Drug response score, conc. 3: conc. 3: Cyclo 40 μg/ml, Vinc 40 ng/ml, Etop 20 μg/ml, Bini 400 ng/ml, Doxo 90 ng/ml; for Drug response score, conc. 4: conc. 4: Cyclo 160 μg/ml, Vinc 80 ng/ml, Etop 100 μg/ml, Bini 800 ng/ml, Doxo 270 ng/ml; for effectiveness on Circulating Tumour Cells (CTCs) under laboratory conditions / Drug sensitivity as calculated by the assay (interpretation of Drug Response Scores): sex cord stromal / ovarian tumour CTCs; for Drug sensitivity as calculated by the assay (interpretation of Drug Response Scores): Table 14. The method, then: as §1, §2, §3
as §4, with “The different cell types were each divided equally into populations, depending on the number of drugs/concentrations to be tested and plated on a cell-culture plate pre-coated with a scaffold of polycaprolactone (PCL) electrospun fibres and incubated at 37° C., 5% CO2, for 5 to (typically 10) minutes to facilitate cell attachment. After attachment,” for “After attachment,”
as §5, §6, §7, §8
Blood samples from a patient with sex cord stromal tumour, ovarian tumour (epitheliod neoplasm, stage 3 recurrence after surgery (resection) and previous chemotherapy) were received on 19 Jul. 2021 and tested using a 5 drug panel. […]

Test [3] has as its system cancer cells derived from the tissue sample of a patient with osteosarcoma. The experiment in a line: Drug response score assay on tissue sample, Example 10. The arrangement: key to Drug response score, conc. 1 / Drug response score, conc. 2 / Drug response score, conc. 3 / Drug response score, conc. 4: normalized drug response metric per Gupta et al. 2020. To be noted: tissue sample; for Drug response score, conc. 1: conc. 1 per Table 31: Etop 1, DTIC 1.5, Ifos 0.125, Doce 0.02, Irinotecan 5 μg/ml; for Drug response score, conc. 2: conc. 2 per Table 31: Etop 4, DTIC 3, Ifos 0.25, Doce 0.2, Irinotecan 10 μg/ml; for Drug response score, conc. 3: conc. 3 per Table 31: Etop 20, DTIC 6, Ifos 5, Doce 2, Irinotecan 25 μg/ml; for Drug response score, conc. 4: conc. 4 per Table 31: Etop 100, DTIC 12, Ifos 10, Doce 10, Irinotecan 50 μg/ml. The method, then:
Where a tissue sample was provided by each subject, cancer stem cells (CSCs, CD133^+), were isolated from said sample. Tumour marker cells were further isolated from each tissue sample. The remaining cells were designated tumour marker^+ cells.
First, disaggregation of the tissue samples was carried out. Disaggregation was dependent on the size of the tissue sample and the method of retrieval: • EBUS (Endobronchial Ultrasound Scan and Biopsy)—very small fragments of tissue in solution-spun at 1200 rpm for 5 minutes to collect tissue pellet • Bronchoscopy-larger fragments with larger amount of blood vessels • Broncho-lavage-similar to EBUS, spun at 1200 rpm for 5 minutes to collet tissue pellet
Once a pellet of tissue obtained, DMEM added to the tissue pellet and the material forced through a […] Smart strainer. Once a cell suspension was achieved, this was spun at 1200 rpm for 5 minutes and the supernatant removed. The cells were then resuspended to a volume of 60 μl.
20 μl of FcR block and 20 μl of CD133 microbeads were added to the resuspended cells, followed by incubation for 15 minutes at 4° C. The cells were then processed using an AutoMACS machine. This separates the […] into CD133^+ and CD133^− cells in 2 separate falcons. The falcon tubes are then centrifuged at 1200 rpm for 5 minutes.
The supernatant was removed from the CD133+falcon tube, and the cells resuspended in DMEM with 2 μl Cell Tox, 2 μl MT and 2 μl MT. 20 μl of the resuspended […] was then plated in each well which will contain an immunotherapy treatment.
The supernatant was removed from the CD133^− falcon tube, and the CD133^− cells contacted with 40 μl of a tumour separation microbeads cocktail containing microbeads bound to anti-CD31, anti-CD45, anti-Glycophorin-A (Gly-A) and an anti-fibroblast antibody.
This cocktail is used to separate out tumour marker cells using MACS, by separating out CD31^+, CD45^+ and Gly-A^+ cells. In addition, anti-fibroblast antibody-labelled beads are also used. The cocktail is added to the CD133^− falcon tube, followed by incubation for 15 minutes at 4° C. MACS is carried out using an AutoMACS machine. This cells which are not bound by the CD31, CD45, Gly-A and anti-fibroblast antibody beads are the tumour marker^+ cells.
as §4, with “The different cell types were each divided equally into populations, depending on the number of drugs/concentrations to be tested and plated on a cell-culture plate pre-coated with a scaffold of polycaprolactone (PCL) electrospun fibres and incubated at 37° C., 5% CO2, for 5 to (typically 10) minutes to facilitate cell attachment. After attachment,” for “After attachment,”
At the end of this culture period, dose response scores were calculated using a normalized drug response metric as described in Gupta et al. (Communications Biology volume 3, Article number: 42 (2020), https://doi.org/10.1038/s42003-020-0765-z). The start readout for a given immunotherapeutic or chemotherapeutic agent at a given concentration was the to readout for said immunotherapeutic or chemotherapeutic agent at a specified concentration. […]

On to `O=P1(N(CCCl)CCCl)NCCCO1` (centres unmarked) [Cyclophosphamide], for which, in test [1] (conc. 1 of each drug as in Table 24, CTCs, t96h), the “Drug response score, conc. 1” value is reported as −0.3176. Further, the “Drug response score, conc. 2” value in test [1] (conc. 2 of each drug as in Table 24, CTCs, t96h) turned out to be 0.9581. In addition, in test [1] (conc. 3 of each drug as in Table 24, CTCs, t96h), the “Drug response score, conc. 3” value is given as 0.6810. Besides, the “Drug response score, conc. 4” value in test [1] (conc. 4 of each drug as in Table 24, CTCs, t96h) was 2.5058. The “effectiveness on Circulating Tumour Cells under laboratory conditions” value in test [1] (sigmoid colon cancer CTCs) is “S+”. In addition, the “Drug sensitivity as calculated by the assay (interpretation of Drug Response Scores)” value (shortened to “Drug sensitivity as calculated”) in test [1] (sigmoid colon cancer CTCs, Table 26) was “Sensitive (S+)”. In test [2], the “Drug response score, conc. 1” value is reported as 0.97; the “Drug response score, conc. 2” value was 0.58; the “Drug response score, conc. 3” value is reported as 0.41; the “Drug response score, conc. 4” value is listed as 0.94. For the same compound, in test [2], the “effectiveness on Circulating Tumour Cells (CTCs) under laboratory conditions” value is “show effectiveness” and the “Drug sensitivity as calculated” value is “Sensitive (S++)”.
On to `CN(C)/N=N/c1[nH]cnc1C(N)=O` [DTIC], for which, in test [3], the “Drug response score, conc. 1” value is on record as −0.7928; the “Drug response score, conc. 2” value is 0.4035; the “Drug response score, conc. 3” value is reported as −0.0520; the “Drug response score, conc. 4” value stood at 0.1714.
For `CCc1c2c(nc3ccc(OC(=O)N4CCC(N5CCCCC5)CC4)cc13)-c1cc3c(c(=O)n1C2)COC(=O)[C@]3(O)CC` [Irina], in that order: −0.0303, −0.1454, 0.2672 and −0.0433.
On to `CC[C@]1(O)C[C@H]2CN(CCc3c([nH]c4ccccc34)[C@@](C(=O)OC)(c3cc4c(cc3OC)N(C=O)[C@H]3[C@@](O)(C(=O)OC)[C@H](OC(C)=O)[C@]5(CC)C=CCN6CC[C@]43[C@@H]65)C2)C1` [Vincristine], for which, in test [2], the “Drug response score, conc. 1” value is 3.35; the “Drug response score, conc. 2” value is 1.24; the “Drug response score, conc. 3” value is reported as 1.83; the “Drug response score, conc. 4” value is on record as 1.29. In test [2], the “effectiveness on Circulating Tumour Cells (CTCs) under laboratory conditions” value is given as “not effective” and the “Drug sensitivity as calculated” value is “Resistant”.
